Earlier results in patent US20240398797A1, “COMBINATION THERAPIES FOR METASTATIC CASTRATION-RESISTANT PROSTATE CANCER” (Janssen Pharmaceutica NV, priority 2021, published 2024).

Legend:
T877A AR mutant = molecular target: T1, T877A AR mutant (Homo sapiens, UniProt P10275, T878A)
T1 sequence (P10275 1-920 T878A): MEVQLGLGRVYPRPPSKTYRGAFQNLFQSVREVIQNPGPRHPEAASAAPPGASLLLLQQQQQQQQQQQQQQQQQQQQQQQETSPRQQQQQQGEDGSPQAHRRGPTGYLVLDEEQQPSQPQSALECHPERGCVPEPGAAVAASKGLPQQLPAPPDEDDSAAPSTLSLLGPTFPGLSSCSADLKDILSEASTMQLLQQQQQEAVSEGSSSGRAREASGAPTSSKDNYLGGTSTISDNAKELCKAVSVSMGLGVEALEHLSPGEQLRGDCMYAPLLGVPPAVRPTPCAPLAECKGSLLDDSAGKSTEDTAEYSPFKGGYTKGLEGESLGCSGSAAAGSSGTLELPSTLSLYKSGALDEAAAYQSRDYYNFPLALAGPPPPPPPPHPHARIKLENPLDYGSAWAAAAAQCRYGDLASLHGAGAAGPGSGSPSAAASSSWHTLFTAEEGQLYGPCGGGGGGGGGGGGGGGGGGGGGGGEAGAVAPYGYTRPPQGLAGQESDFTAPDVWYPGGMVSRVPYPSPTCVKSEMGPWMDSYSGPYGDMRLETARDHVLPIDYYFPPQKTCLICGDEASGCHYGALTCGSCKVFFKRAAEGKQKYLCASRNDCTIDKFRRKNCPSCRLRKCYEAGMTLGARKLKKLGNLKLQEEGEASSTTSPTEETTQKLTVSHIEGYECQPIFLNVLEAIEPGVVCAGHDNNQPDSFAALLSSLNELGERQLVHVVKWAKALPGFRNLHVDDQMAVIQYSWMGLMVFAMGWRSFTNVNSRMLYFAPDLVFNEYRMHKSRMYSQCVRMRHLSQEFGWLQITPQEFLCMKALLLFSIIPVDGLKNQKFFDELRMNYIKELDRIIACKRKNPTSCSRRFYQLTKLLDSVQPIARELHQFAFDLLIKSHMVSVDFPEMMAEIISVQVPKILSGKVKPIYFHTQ

[1] = tested on: non-castrate hormone-sensitive and bicalutamide-resistant human prostate cancer xenograft models

| SMILES | activity at AR mutant (T877A AR mutant) | tumor regression [1] |
| --- | --- | --- |
| CC(C)(O)C(=O)Nc1ccc([N+](=O)[O-])c(C(F)(F)F)c1 [hydroxyflutamide] | act as AR agonists |  |
| CNC(=O)c1ccc(N2C(=S)N(c3cnc(C#N)c(C(F)(F)F)c3)C(=O)C23CCC3)cc1F [Apalutamide, 4-[7-(6-cyano-5-trifluoromethylpyridin-3-yl)-8-oxo-6-thioxo-5,7-diazaspiro [3.4]oct-5-yl]-2-fluoro-N-methylbenzamide] |  | partial or complete tumor regression |
